Legend:
[1] = rat, in vivo
From the text: Determination of Thrombin Time Ex Vivo
The inhibition of thrombin after oral or parenteral administration of the compounds of formula I, dissolved in ethanol:Solutol™:water (5:5:90), were examined in conscious rats which, one or two days prior to the experiment, were equipped with a catheter for blood sampling from the carotid artery. On the experimental day blood samples were withdrawn at fixed times after the administration of the compound into plastic tubes containing 1 part sodium citrate solution (0.13 mol per L) and 9 parts of blood. The tubes were centrifuged to obtain platelet poor plasma. The plasma was used for determination of thrombin time as described below.
The citrated rat plasma, 100 μL, was diluted with a saline solution, 0.9%, 100 μL, and plasma coagulation was started by the addition of human thrombin (T 6769, Sigma Chem Co, USA) in a buffer solution, pH 7.4, 100 μL. The clotting time was measured in an automatic device (KC 10, Amelumg, Germany). […]
Based on the estimated plasma concentrations of the active thrombin inhibitor (which assumes that thrombin time prolongation is caused by the aforementioned compound) in the rat, the area under the curve after oral and/or parenteral administration of the corresponding prodrug compound of formula I was calculated (AUCpd) using the trapezoidal rule and extrapolation of data to infinity. […]

Human thrombin = biological target: T1, Human thrombin (Homo sapiens, UniProt P00734); experiment: Test A: Determination of Thrombin Clotting Time (TT); type: biochemical; conditions: concentration of inhibitor that doubles the thrombin clotting time for human plasma
T1 construct: conversion of the proenzyme prothrombin to the active enzyme thrombin; purchased Sigma Chem. Co T 6769
Description: Determination of Thrombin Clotting Time (TT)
The inhibitor solution (25 μL) was incubated with plasma (25 μL) for three minutes. Human thrombin (T 6769; Sigma Chem. Co) in buffer solution, pH 7.4 (25 μL) was then added and the clotting time measured in an automatic device (KC 10; Amelung).
The clotting time in seconds was plotted against the inhibitor concentration, and the IC50TT was determined by interpolation.
IC50TT is the concentration of inhibitor in the test that doubles the thrombin clotting time for human plasma.

SMILES	oral and/or parenteral bioavailability as the corresponding active inhibitor (free amidine) [1]	IC50 (Human thrombin) [nM]
CON=C(N)c1ccc(CNC(=O)[C@@H]2CCN2C(=O)C2(O)CCOc3c(OC(F)F)cc(Cl)cc32)cc1 (single isomer, unassigned) [Example 9, (S)- or (R)-4-Hydroxy-6-chloro-8-difluoromethoxychroman-4-yl-C(O)-Aze-Pab(OMe)]	exhibit oral and/or parenteral bioavailability	–
N=C(N)c1ccc(CNC(=O)C2CCN2C(=O)C2(O)CCOc3c(OC(F)(F)F)cc(Cl)cc32)cc1 (stereo not shown) [Example 6, 4-Hydroxy-6-chloro-8-trifluoromethoxychroman-4-yl-C(O)-Aze-Pab]	–	< 100
N=C(N)c1ccc(CNC(=O)C2CCN2C(=O)C2(O)CCOc3c(OC(F)F)cc(Cl)cc32)cc1 (single isomer, unassigned) [Example 8, (S)- or (R)-4-Hydroxy-6-chloro-8-difluoromethoxychroman-4-yl-C(O)-Aze-Pab×HOAc]	–	< 100
CON=C(N)c1ccc(CNC(=O)[C@@H]2CCN2C(=O)C2(O)CCOc3c(OC(F)(F)F)cc(Cl)cc32)cc1 (stereo partly shown) [Example 7, 4-Hydroxy-6-chloro-8-trifluoromethoxychroman-4-yl-C(O)-Aze-Pab(OMe)]	exhibit oral and/or parenteral bioavailability	–
